# Experimental data reported in US8951527B2, “Radioprotectants targeting thrombospondin-1 and CD47” (The United States of America, as represented by the …, priority 2008, dated 2015).
# Experiments:
# [1] = tested on: B16 melanoma tumors; experiment: Histology, TUNEL and CD68 staining of irradiated B16 tumors; format: in vivo, mouse; details: morpholino 48 hours before 10 Gy, 24 hours post-radiation
# Procedure: FIG. 21. Increased fibrotic response, viable immune reaction, and macrophage infiltration is seen in tumors with suppressed CD47 expression. C57BL/6 mice were injected with 1×10^6 B16 mouse melanoma cells into their hind limbs. Treatment consisted of two groups where the hind limbs were treated with either 150 μl of PBS or 150 μl of CD47 morpholino (10 μM) 48 hours prior to radiation (10 Gy). The control group consisted of just tumor without radiation. 24 hours post-radiation the mice were sacrificed, and their hindlimbs were prepared in paraffin embedded tissue sections for analysis. The top panels represent hind limbs and tumors in each group stained by standard H&E protocol (FIG. 21A). […] Positive (apoptotic) cells are indicated by brown nuclear staining (FIG. 21B). […] Dark staining within the tumor indicates macrophage infiltration. Images were acquired using either a 4× or 10× objective.
# Immunohistochemical Evaluation: Staining for the macrophage marker CD68 was done as previously described (Manso et al., Cancer Res 68:7090-7099, 2008) utilizing a rat anti-mouse CD68 antibody (AbD Serotec, Raleigh, N.C.). H&E staining of tissue hind limbs was prepared by American HistoLabs, Gaithersburg, Md.
# Tissue Apoptosis: The ApopTag in situ detection kit (Chemicon, Millipore, Mass.) was used as described in Example 1. Additionally, animals were injected with 1×10^6 B16 melanoma cells and treated with either CD47 morpholino or sterile PBS as previously described. Mice were sacrificed 24 hours post irradiation (10 Gy), and hind limbs were embedded in paraffin blocks. Tissue sections incorporating the entire hind limb were examined for apoptosis employing 3′-hydroxy DNA strand breaks enzymatically labeled with digoxygenin nucleotide via TdT. Positive and negative control slides provided with the kit are used in each assay to ensure consistency.
# [2] = tested on: C57BL/6 wild type mice; experiment: Tissue apoptosis (TUNEL) in irradiated hindlimb muscle and bone marrow; format: in vivo, mouse; details: morpholino 48 hours before 25 Gy, 24 hours post-radiation
# Procedure: FIG. 17. Therapeutic suppression of CD47 prevents radiation-induced apoptosis in muscle and bone marrow. The presence of apoptosis was detected by the TUNEL method as brown nuclear staining. Non-irradiated control hindlimbs (upper panels) and hindlimbs irradiated for a total of 25 Gy all from age and sex matched C57BL/6 wild type mice were prepared for paraffin-embedded tissue sections 24 hours post-radiation and were examined for the presence of apoptotic nuclei. Mice hindlimbs injected with the CD47 morpholino (bottom panels) 48 hours prior to radiation were also prepared in the same manner 24 hours post-radiation. Apoptosis is inferred by intranuclear staining of muscle and bone marrow cells. Images were acquired using a 20× objective.
# Tissue apoptosis: The ApopTag in situ detection kit (Chemicon, Millipore, Mass.) was employed following the manufacturer's recommendations In brief, sections undergo deparaffinization, rehydration and washing, followed by treatment with 20 μg/ml of proteinase K for 15 minutes at room temperature and repeat washing. Endogenous peroxidase activity was quenched with 3% H2O2 in PBS for 5 minutes. The 3′-hydroxy DNA strand breaks were enzymatically labeled with digoxygenin nucleotide via TdT and incubated for 1 hour at 37° C., and the reaction terminated with a stop buffer. […]
# [3] = tested on: B16F10 melanoma cells; experiment: B16F10 melanoma cell viability after irradiation in vitro; format: cell-based, mouse; details: 7N3 1 hour or morpholino 48 hours before 10 Gy, versus untreated cells
# Procedure: FIG. 19. CD47 suppression enhances re-growth delay in irradiated syngeneic B16 melanoma and squamous cell carcinoma tumors but increases radioresistance of B16 cells in vitro. C57BL/6 mice were injected with 1×10^6 B16 mouse melanoma cells into their right hindlimbs. Five days later, the mice were randomized into 4 groups (12 mice in each group) where they either received injections of CD47 morpholino (10 μM) in sterile PBS, PBS, or no injection. The two groups receiving injections were then subjected to radiation (10 Gy) to the effected hindlimb 48 hours later. The other two groups served as controls and consisted of tumor alone or tumor subjected to only the morpholino. Tumors were followed post-radiation for 30 days, measuring their volume every 6 days (FIG. 19A). […] Cell (mitochondrial) viability was measured 48 hours post radiation using the MTT assay.
# Cell Viability Assay. […] Cell viability was determined using the CellTiter 96 Aqueous One Solution cell proliferation assay (Promega, Madison, Wis.) as per the manufacturer's instructions and absorbance at 490 nm was determined using an MR580 Microelisa AutoReader (Dynatech, Alexandria, Va.). […]
# Irradiation of cells. […] The dose rate at 50 cm from the x-ray source was 242 cGy/minute, as determined by multiple thermo luminescent dosimeter readings.
sequence,measurement,setting,value
"CGTCACAGGCAGGACCCACTGCCCA (all phosphorodiamidate morpholino (PMO)) [CD47 morpholino, CD47 targeting morpholino oligonucleotide]","H&E of irradiated tumors (fibrosis, necrosis)",[1],greater fibrosis and necrotic response
same,apoptotic cells associated with the tumor (TUNEL),[1],minimal numbers of apoptotic cells
same,macrophage marker CD68 staining of tumors,[1],positive staining in the periphery
same,apoptosis (TUNEL) in bone marrow,[2],tissue protection extended to the bone marrow compartment
same,apoptosis (TUNEL) in skeletal muscle,[2],minimum cell death (apoptosis)
same,cell viability after 10 Gy,[3],mild radioprotective effect
